Measurements taken from patent US6376478B1, “Pharmaceutical compositions and methods for treating anxiety, anxiety disorders and memory impairment using naaladase inhibitors” (Guilford Pharmaceuticals Inc., priority 1999, dated 2002).
Several values for one entry are separate records, joined by “and”; a condition that tells them apart may be missing. Equal values may be shown once.

Assays:
NAALADase = NAALADase (Homo sapiens, UniProt Q04609); test: In vitro inhibition of NAALADase activity; assay type: biochemical
[1] = Passive avoidance anxiolytic model (shuttlebox, latency to cross); assay type: in vivo; conditions: for Latency to Cross, Mean / Latency to Cross, individual animals: Table II
Excerpt: The passive avoidance test consists of an acquisition and a retention trial. On the day prior to dosing, the animal is placed into the shuttlebox and allowed to acclimate. A conditioned stimulus (light) is presented for approximately 100 seconds. When the animal crosses to the dark compartment, a mild (0.5 mA) footshock is presented until the animal returns to the lighted compartment or for approximately 10 seconds. Animals failing to cross during acquisition trial is randomly replaced. The day following acquisition, animals are administered test article, saline or flurazepam 10 minutes prior to being placed in the shuttlebox and tested for retention as described above. Latency to cross (in seconds) is recorded.

NAALADase, sequence (Q04609 whole entry): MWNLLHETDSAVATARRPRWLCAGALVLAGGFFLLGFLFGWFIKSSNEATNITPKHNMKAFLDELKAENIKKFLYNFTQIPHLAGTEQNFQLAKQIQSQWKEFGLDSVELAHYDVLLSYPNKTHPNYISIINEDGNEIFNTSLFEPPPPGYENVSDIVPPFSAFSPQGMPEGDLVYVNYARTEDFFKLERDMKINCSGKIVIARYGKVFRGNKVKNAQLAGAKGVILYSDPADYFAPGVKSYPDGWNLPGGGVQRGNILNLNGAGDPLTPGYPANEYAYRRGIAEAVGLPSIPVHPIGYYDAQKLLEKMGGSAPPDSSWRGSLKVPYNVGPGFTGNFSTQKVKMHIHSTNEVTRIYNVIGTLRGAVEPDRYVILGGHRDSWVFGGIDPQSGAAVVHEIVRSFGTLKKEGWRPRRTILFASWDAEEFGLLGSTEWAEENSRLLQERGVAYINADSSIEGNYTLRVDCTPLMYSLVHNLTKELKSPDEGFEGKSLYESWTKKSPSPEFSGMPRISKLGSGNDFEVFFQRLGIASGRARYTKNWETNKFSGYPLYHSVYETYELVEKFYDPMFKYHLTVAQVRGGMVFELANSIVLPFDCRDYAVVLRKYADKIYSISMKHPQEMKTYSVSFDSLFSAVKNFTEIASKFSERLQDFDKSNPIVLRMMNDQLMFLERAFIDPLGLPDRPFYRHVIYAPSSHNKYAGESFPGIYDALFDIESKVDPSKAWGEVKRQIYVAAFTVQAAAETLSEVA

O=C(O)CCC(CCS)C(=O)O (stereo not drawn) [Compound 1, 2-(2-sulfanylethyl)pentanedioic acid]
Ki (NAALADase): 510 nM | anxiolytic properties in passive avoidance ([1]; Example 14): exhibit anxiolytic properties | performance compared with flurazepam in passive avoidance ([1]; Example 14, in some experiments): performed better than the known anxiolytic agent, flurazepam | Latency to Cross, Mean ([1]; Compound 1 1 mg/kg PO): 34.8 s | Latency to Cross, individual animals ([1]; Compound 1 1 mg/kg PO, 1 mg/kg): 5.9 seconds and 15.8 seconds and 28.4 seconds and 30.3 seconds and 100.0 seconds (3×) and 12.3 seconds and 27.9 seconds and 23.5 seconds and 3.9 seconds and 13.1 seconds and 0.2 seconds and 41.3 seconds and 20.1 seconds | Latency to Cross, Mean ([1]; Compound 1 10 mg/kg PO): 23.6 s | Latency to Cross, individual animals ([1]; Compound 1 10 mg/kg PO, 10 mg/kg): 1.8 s and 28.5 s and 64.1 s and 3.2 s and 14.7 s and 10.3 s and 3.3 s and 24.6 s and 9.4 s and 100.0 s and 22.7 s and 6.6 s and 14.0 s and 38.8 s and 12.1 s | Latency to Cross, Mean ([1]; Compound 1 100 mg/kg PO): 18.0 s | Latency to Cross, individual animals ([1]; Compound 1 100 mg/kg PO, 100 mg/kg): 15.0 s and 19.2 s and 5.6 s and 19.3 s and 6.2 s and 55.7 s and 25.5 s and 21.5 s and 6.6 s and 15.1 s and 8.4 s and 17.4 s and 0.5 s and 0.7 s and 52.8 s
